According to US20170295779A9, “COMPOSITION COMPRISING A PESTICIDE AND AMIDE” (BASF SE, priority 2013, published 2017):

Assays:
barley (cultivar Lawina) = experiment: Phytotoxicity greenhouse test, spray of carboxylic acid amide on barley; assay type: in vivo; settings: 3-4 leaf stage, spray 200 l/ha comprising 1500 ml carboxylic acid amide/ha, visual score vs plants treated with water only
Procedure: Phytotoxicity in accordance with the present invention is determined by an assay where a spray comprising water (aqua dest.) and carboxylic acid amide (200 l/ha comprising 1500 ml carboxylic acid amide/ha) is prepared and applied on plants of barley (cultivar […]) being in 3-4 leaf stage at a water application rate of 1.5 l/ha. The experimental period lasts for 10 days. During this time, the experimental plants receive optimum watering, with nutrients being supplied via the water used for watering. The phytotoxicity is evaluated by awarding scores to the treated plants in comparison to untreated plants, i.e. treated with water only. The evaluation scale ranges from 0% to 100% phytotoxicity. The evaluation is done by visual examination. 0% phytotoxicity means that there are no differences between treated and untreated plants. Thus, no phytotoxicity in accordance with the present invention means that the treated plants to not have plant injury and there is no difference between treated and untreated plants. Low phytotoxicity in accordance with the present invention means that only 1 to 10% of the treated plants have plant injury as compared to untreated plants. For the greenhouse tests, barley (cultivar […]) was sown and cultivated in standard soil (type P, fine) for 3 weeks. The spray mixtures were applied with a minicompressor (4 times) in a laboratory fume hood on plants being in 3-4 leaf stage. A spray comprising water (aqua dest.) and dibutylpropionamide from Example 1 (200 l/ha comprising 1500 ml dibutylpropionamide/ha) was prepared and applied at a water application rate of 1.5 l/ha. The experimental period lasted for 10 days. During this time, the experimental plants received optimum watering, with nutrients being supplied via the water used for watering. The phytotoxicity was evaluated by assessing scores to the treated plants in comparison to untreated plants, i.e. treated with water only (see Table 1). The evaluation scale ranges from 0% to 100% phytotoxicity. The evaluation was done by visual examination. Thus, 0% phytotoxicity means that there were no differences between treated and untreated plants. […] A rating of 0% phytotoxicity means no crop injury. […] A rating of 100% means the complete destruction of all plants. […] Thus, less than 10% of the plants were affected when said carboxylic acid amides were applied on the plants in a dose of 1500 ml/ha. […] Thus, carboxylic acid amides wherein the N,N-alkyl groups are having more than two carbon atoms seem to have no or almost no phytotoxic effect on the plants and can therefore be used in agricultural compositions for reducing the phytotoxicity in such compositions.

[1] = Determination of the max. solubility of fungicides in carboxylic acid amides; assay type: physicochemical
Procedure: The respective fungicide was dissolved in the solvent of interest so that a supersaturated solution was obtained. The deposit was filtered off. The concentration of the fungicide in the supernatant was determined via quantitative 1H-NMR spectroscopy.

In the case of `CCC(=O)N(CC)CC` [Diethylpropionamide, N,N-diethyl-propionamide], the “Phytotoxicity [%] 10 days after treatment” value (“Phytotoxicity [%] 10 days” below) (barley (cultivar Lawina)) is reported as 6%.

In the case of `CCCCN(CCCC)C(=O)CC` [Dibutylpropionamide, N,N-dibutyl-propionamide], the “Phytotoxicity [%] 10 days” value (barley (cultivar Lawina)) is reported as 0% and the “Solubility [%] Fluxapyroxad” value [1] is reported as 28%.

For `CCC(=O)N(C)C` [Dimethylpropionamide, N,N-dimethyl-propionamide, reference compound], the “Phytotoxicity [%] 10 days” value (barley (cultivar Lawina)) was 43% and the “Phytotoxicity [%] 10 days” value (barley (cultivar Lawina); listed as dimethylpropionamide) was “up to 43%”.

For `CCCCCCCC(=O)N(CCCC)CCCC` [C8-dibutylamide, N,N-dibutyl-octanamide], the “Phytotoxicity [%] 10 days” value (barley (cultivar Lawina)) was 5%.
